Earlier results on 1 compound are cited in patent US11497741B2, “Granules containing diamine derivative” (DAIICHI SANKYO COMPANY, LIMITED, priority 2018, dated 2022).

Regarding `CN1CCc2nc(C(=O)N[C@@H]3C[C@@H](C(=O)N(C)C)CC[C@@H]3NC(=O)C(=O)Nc3ccc(Cl)cn3)sc2C1` [Edoxaban, N^1-(5-Chloropyridin-2-yl)-N^2-((1S,2R,4S)-4-[(dimethylamino)carbonyl]-2-{[(5-methyl-4,5,6,7-tetrahydrothiazolo[5,4-c]pyridin-2-yl)carbonyl]amino}cyclohexyl)ethanediamide], under “neutral aqueous solution (neutral buffer solution)”, the “solubility (water solubility)” value is “reduced solubility”. The solubility result (strongly acidic aqueous solution) is given as “good solubility”.
